Experimental data from patent publication US10676468B2, “N-(3-heteroarylaryl)-4-arylarylcarboxamides and analogs as hedgehog pathway inhibitors and use thereof” (IMPACT Therapeutics, Inc., priority 2012, dated 2020).
pIC50: −log10 of the molar value.

Key:
Format in all cases: cell-based, mouse
[1] = system: Hedgehog Signaling Pathway; experiment: SAG-induced differentiation of C3H10T1/2 cells into osteoblastic cells, intracellular alkaline phosphatase activity; settings: 1 μM SAG, 5 days, alkaline phosphatase activity (OD405), read-out: IC50 values of compounds that inhibit Hh pathway
In short: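 Mouse C3H10T1/2 cells were induced with SAG and exposed to compound (10 μM to 1 nM) for 5 days at 37 °C. Cells were lysed in 0.2% Triton, and alkaline phosphatase activity was read as OD405 over 30 min at 37 °C in pH 9.8 substrate buffer. IC50 came from a non-linear fit of background-subtracted OD405 against log concentration.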

[2] = system: Hedgehog Signaling Pathway; experiment: SHH-induced differentiation of C3H10T1/2 cells into osteoblastic cells, intracellular alkaline phosphatase activity; settings: 10 nM SHH-N, 5 days, alkaline phosphatase activity (OD405), read-out: IC50 values of compounds that inhibit Hh pathway
In short: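 Hedgehog pathway inhibition was taken as loss of SHH-driven osteoblastic differentiation. Test compound (10 nM–10 μM) plus SHH-N (10 nM) was applied to C3H10T1/2 cells for 5 days, then lysate phosphatase turnover was measured as the 30-min OD405 change at 37 °C. IC50 was fitted from activity versus log dose.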

[3] = system: Hedgehog Signaling Pathway; experiment: Gli-Luc reporter gene cell assay in C3H10T1/2/Gli-Luc cells stimulated with Shh; settings: 30 nM Shh, luciferase activity (RLU), read-out: IC50 values of compounds that inhibit Hh pathway
In short: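 IC50 from nonlinear fit of luciferase RLU versus log compound concentration. Stably transfected C3H10T1/2/Gli-Luc cells received a 7-point compound series alongside Shh (30 nM in the added medium) for 24 h at 37 °C in DMEM/10% FBS, then were lysed for luciferase readout.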

[4] = Mus musculus, C3H 10T1/2, 120 h

How did the pIC50 [1, 4] turn out when Cc1c(C(=O)Nc2ccc(Cl)c(-c3ncc(-c4cccs4)[nH]3)c2)ccc(N2C[C@@H](C)N(C)[C@@H](C)C2)c1F [Example 156, N-(3-(5-(thiophen-2-yl)-1H-imidazol-2-yl)-4-chlorophenyl)-2-methyl-3-fluoro-4-((3S,5R)-3,4,5-trimethylpiperazin-1-yl)benzamide] was run?
Its pIC50 is 8.15.

What about the pIC50 [2, 4] of the same compound?
Its pIC50 is 9.70.

And the pIC50 ([3]; Mus musculus, C3H 10T1/2, 24 h)?
The pIC50 was 9.68.

Which results are given for C[C@@H]1CN(c2cc(Cl)c(C(=O)Nc3ccc(Cl)c(-c4ncc(-c5cccs5)[nH]4)c3)cc2F)C[C@H](C)N1C [Example 157, N-(3-(5-(thiophen-2-yl)-1H-imidazol-2-yl)-4-chlorophenyl)-2-chloro-5-fluoro-4-((3S,5R)-3,4,5-trimethylpiperazin-1-yl)benzamide]?
pIC50 [1, 4]: 8.00; pIC50 [2, 4]: 9.82; pIC50 ([3]; Mus musculus, C3H 10T1/2, 24 h): 9.64

CCN1[C@H](C)CN(c2ccc(C(=O)Nc3ccc(Cl)c(-c4ncc(-c5cccs5)[nH]4)c3)c(Cl)c2)C[C@@H]1C [Example 158, N-(3-(5-(thiophen-2-yl)-1H-imidazol-2-yl)-4-chlorophenyl)-2-chloro-4-((3S,5R)-4-ethyl-3,5-dimethylpiperazin-1-yl)benzamide] was tested. Which pIC50 [1, 4] did it give?
The pIC50 was 8.09.

What about the pIC50 [2, 4] of the same compound?
The pIC50 was 9.38.

And the pIC50 ([3]; Mus musculus, C3H 10T1/2, 24 h)?
The pIC50 was 9.52.

CC(C)N1[C@H](C)CN(c2ccc(C(=O)Nc3ccc(Cl)c(-c4ncc(-c5cccs5)[nH]4)c3)c(Cl)c2)C[C@@H]1C [Example 159, N-(3-(5-(thiophen-2-yl)-1H-imidazol-2-yl)-4-chlorophenyl)-2-chloro-4-((3S,5R)-4-isopropyl-3,5-dimethylpiperazin-1-yl)benzamide] was tested. Which pIC50 [1, 4] did it give?
The pIC50 was 8.00.

What about the pIC50 [2, 4] of the same compound?
Its pIC50 is 9.44.

What about the pIC50 ([3]; Mus musculus, C3H 10T1/2, 24 h) of the same compound?
Its pIC50 is 9.51.

What does the source list for CS(=O)(=O)c1ccc(C(=O)Nc2ccc(Cl)c(-c3ncc(-c4cccs4)[nH]3)c2)c(Cl)c1 [Example 160, N-(3-(5-(thiophen-2-yl)-1H-imidazol-2-yl)-4-chlorophenyl)-2-chloro-4-(methylsulfonyl)benzamide]?
pIC50 [1, 4]: 7.18; pIC50 [2, 4]: < 5.00; pIC50 ([3]; Mus musculus, C3H 10T1/2, 24 h): 8.19

Which results are given for Cc1cc(N2C[C@@H](C)N(C)[C@@H](C)C2)ccc1C(=O)Nc1ccc(Cl)c(-c2ncc[nH]2)c1 [Example 166, N-(3-(1H-imidazol-2-yl)-4-chlorophenyl)-2-methyl-4-((3S,5R)-3,4,5-trimethylpiperazin-1-yl)benzamide]?
pIC50 [1, 4]: 6.46; pIC50 [2, 4]: 7.33; pIC50 ([3]; Mus musculus, C3H 10T1/2, 24 h): 7.96

Cc1cc(N2C[C@@H](C)N(C)[C@@H](C)C2)ccc1C(=O)Nc1ccc(Cl)c(-c2ncc(C(C)C)[nH]2)c1 [Example 170, N-(3-(5-isopropyl-1H-imidazol-2-yl)-4-chlorophenyl)-2-methyl-4-((3S,5R)-3,4,5-trimethylpiperazin-1-yl)benzamide] was tested. Which pIC50 [1, 4] did it give?
The pIC50 was 7.52.

What about the pIC50 [2, 4] of the same compound?
The pIC50 was 9.66.

What about the pIC50 ([3]; Mus musculus, C3H 10T1/2, 24 h) of the same compound?
Its pIC50 is 9.66.

Which results are given for CCCc1cnc(-c2cc(NC(=O)c3ccc(N4C[C@@H](C)N(C)[C@@H](C)C4)cc3C)ccc2Cl)[nH]1 [Example 172, N-(3-(5-propyl-1H-imidazol-2-yl)-4-chlorophenyl)-2-methyl-4-((3S,5R)-3,4,5-trimethylpiperazin-1-yl)benzamide]?
pIC50 [1, 4]: 6.90; pIC50 [2, 4]: 7.35; pIC50 ([3]; Mus musculus, C3H 10T1/2, 24 h): 7.77

Which results are given for CCCc1cnc(-c2cc(NC(=O)c3ccc(N4C[C@@H](C)N(C)[C@@H](C)C4)cc3Cl)ccc2Cl)[nH]1 [Example 173]?
pIC50 [1]: 6.78; pIC50 [2]: 7.22; pIC50 ([3]; 24 hours): 7.82

Cc1cc(N2C[C@@H](C)N(C)[C@@H](C)C2)ccc1C(=O)Nc1ccc(Cl)c(-c2ncc(C(C)(C)C)[nH]2)c1 [Example 174, N-(3-(5-tert-butyl-1H-imidazol-2-yl)-4-chlorophenyl)-2-methyl-4-((3S,5R)-3,4,5-trimethylpiperazin-1-yl)benzamide] was tested. Which pIC50 [1, 4] did it give?
The pIC50 was 7.04.

What about the pIC50 [2, 4] of the same compound?
The pIC50 was 7.96.

And the pIC50 ([3]; Mus musculus, C3H 10T1/2, 24 h)?
The pIC50 was 8.24.

What does the source list for C[C@@H]1CN(c2ccc(C(=O)Nc3ccc(Cl)c(-c4ncc(C(C)(C)C)[nH]4)c3)c(Cl)c2)C[C@H](C)N1C [Example 175, N-(3-(5-tert-butyl-1H-imidazol-2-yl)-4-chlorophenyl)-2-chloro-4-((3S,5R)-3,4,5-trimethylpiperazin-1-yl)benzamide]?
pIC50 [1, 4]: 6.75; pIC50 [2, 4]: 8.21; pIC50 ([3]; Mus musculus, C3H 10T1/2, 24 h): 8.12
